Results on 19 molecules are retold here after PubChem BioAssay (NCI).

Each structure is given as a SMILES string.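 Cells were grown in 96-well plates and exposed to each compound for 48 hours at five concentrations; endpoints were interpolated linearly between bracketing concentrations, or set to the highest concentration if not reached. At the GI50, growth is halved. TGI is the concentration that stops growth completely.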

Some test systems named below: HCT-15 colon; HS 578T breast; LOX IMVI melanoma; MCF7 breast; MDA-MB-435; NCI-H460 lung; OVCAR-8 ovarian; SK-MEL-5 melanoma; SNB-75 CNS; UACC-62 melanoma.
What all share (test): NCI-60 cell line screen, 48 h

Regarding `Nc1nc(-c2ccccc2)cc(-c2ccc(F)cc2)c1-c1ccc(Cl)cc1`, the TGI in the experiment on HCT-15 colon, in the experiment with HS 578T breast, in the experiment on LOX IMVI melanoma, in the experiment on MCF7 breast, in the experiment with MDA-MB-435 and in the experiment on NCI-H460 lung was over 100 µM in each case. For the same molecule, the TGI in the experiment on OVCAR-8 ovarian, in the experiment with SK-MEL-5 melanoma, in the experiment with SNB-75 CNS and in the experiment on UACC-62 melanoma was over 100 µM in each case.
With `Nc1c(Cl)ncnc1NCC1(CO)CCC1`, the TGI in the experiment with HCT-15 colon, in the experiment on HS 578T breast, with LOX IMVI melanoma, in the experiment on MCF7 breast, with MDA-MB-435 and with NCI-H460 lung was over 100 µM throughout. For the same molecule, the TGI in the experiment with OVCAR-8 ovarian, with SK-MEL-5 melanoma and with SNB-75 CNS was over 100 µM throughout.
On to `NC(=O)c1ccc(N)nc1`, for which the TGI in the experiment on HCT-15 colon, in the experiment with HS 578T breast, in the experiment with LOX IMVI melanoma, in the experiment with MCF7 breast, in the experiment with MDA-MB-435 and in the experiment on NCI-H460 lung was over 400 µM in each case. Further, the TGI in the experiment on OVCAR-8 ovarian was over 400 µM; with SNB-75 CNS, over 125 µM; in the experiment with UACC-62 melanoma, over 400 µM.
Take `NCCCCN(CCCN)C(=O)OCc1ccccc1`: the TGI with HCT-15 colon, in the experiment with HS 578T breast, with MCF7 breast, in the experiment on MDA-MB-435, with NCI-H460 lung and in the experiment on OVCAR-8 ovarian was over 100 µM each time. Further, the TGI with SK-MEL-5 melanoma, in the experiment on SNB-75 CNS and in the experiment with UACC-62 melanoma was over 100 µM in each case.
Turning to `CN(C)c1ccc(C(=C2C=CC(=[N+](C)C)C=C2)c2c(O)c(S(=O)(=O)[O-])cc3cc(S(=O)(=O)O)ccc23)cc1`, the TGI in the experiment with HCT-15 colon, with HS 578T breast, with LOX IMVI melanoma, in the experiment with MCF7 breast, with MDA-MB-435 and with NCI-H460 lung was over 100 µM in each case. In addition, the TGI in the experiment on OVCAR-8 ovarian, with SK-MEL-5 melanoma, in the experiment with SNB-75 CNS and in the experiment with UACC-62 melanoma was over 100 µM in each case.
Consider `O=C(/C=C/c1ccco1)c1ccc(Nc2ccnc3cc(Cl)ccc23)cc1`, for which the GI50 in the experiment on HS 578T breast is over 100 µM; with LOX IMVI melanoma, 6.41 µM; in the experiment on MCF7 breast it was 1.46 µM; with MDA-MB-435 it was over 100 µM; in the experiment on NCI-H460 lung it was 2.13 µM; in the experiment on OVCAR-8 ovarian, over 100 µM. In addition, the results for the GI50 in the experiment with SK-MEL-5 melanoma, in the experiment on SNB-75 CNS and in the experiment with UACC-62 melanoma were 12 µM, over 100 µM and over 100 µM, respectively. Further, the TGI was over 100 µM with HS 578T breast; over 100 µM in the experiment on LOX IMVI melanoma; 4.55 µM with MCF7 breast; over 100 µM in the experiment on MDA-MB-435; over 100 µM with NCI-H460 lung; over 100 µM with OVCAR-8 ovarian. Further, the TGI in the experiment on SK-MEL-5 melanoma, with SNB-75 CNS and with UACC-62 melanoma was over 100 µM throughout.
On to `CCOC(=O)C(NC(=O)Nc1ccccc1)(Nc1cccc(Cl)c1)C(F)(F)F` (stereo not drawn), for which the TGI with HCT-15 colon was over 100 µM; in the experiment with HS 578T breast, over 78.4 µM; with LOX IMVI melanoma it was over 100 µM; in the experiment with MCF7 breast, over 100 µM; in the experiment on MDA-MB-435, over 100 µM; in the experiment with NCI-H460 lung it was over 100 µM. The TGI in the experiment on OVCAR-8 ovarian, in the experiment on SK-MEL-5 melanoma, with SNB-75 CNS and in the experiment with UACC-62 melanoma was over 100 µM in each case.
As for `Cc1cc(C)c2c(=O)n(CC(O)CN3CCN(c4ncccn4)CC3)sc2n1` (stereo not drawn), the TGI in the experiment with HCT-15 colon amounted to 35.4 µM; with HS 578T breast it was 42.8 µM; with LOX IMVI melanoma it was 33.7 µM; in the experiment with MCF7 breast, 31.8 µM; in the experiment on MDA-MB-435, 30.1 µM; in the experiment with NCI-H460 lung, 31.2 µM. In addition, the TGI in the experiment on OVCAR-8 ovarian turned out to be 38.2 µM; in the experiment with SK-MEL-5 melanoma it was 35.5 µM; with SNB-75 CNS it was 28.4 µM; in the experiment with UACC-62 melanoma, 31.6 µM.
Regarding `C/C(=C/CC[C@](C)(OC1OC(CO)C(O)C(O)C1OC1OC(C)C(O)C(O)C1O)[C@H]1CC[C@]2(C)[C@@H]1CC[C@@H]1[C@@]3(C)CC[C@H](O)C(C)(C)[C@@H]3C[C@H](O)[C@]12C)CO` (stereo partly drawn), the TGI in the experiment with HS 578T breast, in the experiment with LOX IMVI melanoma, in the experiment with MCF7 breast, in the experiment with MDA-MB-435, in the experiment on NCI-H460 lung and in the experiment on OVCAR-8 ovarian was over 100 µM throughout. Besides, the TGI in the experiment on SK-MEL-5 melanoma, in the experiment with SNB-75 CNS and in the experiment on UACC-62 melanoma was over 100 µM each time.
Turning to `O=C1CCCc2ccc3c(c21)CC1(Cc2cc4c(cc2C1)CCCC4)C3`, the TGI is 61.3 µM with HCT-15 colon; 81.4 µM in the experiment on HS 578T breast; 28.5 µM in the experiment with LOX IMVI melanoma; 56.7 µM in the experiment with MCF7 breast; 46.7 µM with MDA-MB-435; 74.5 µM in the experiment with NCI-H460 lung. Moreover, the TGI was 47.4 µM with OVCAR-8 ovarian, 26.2 µM with SK-MEL-5 melanoma, 65.1 µM in the experiment on SNB-75 CNS and 49.2 µM in the experiment on UACC-62 melanoma.
With `O=C(NCCc1ccc(F)cc1)c1cc(/C=C/c2cc(O)ccc2O)ccc1O`, the TGI is 6.32 µM with HCT-15 colon; over 100 µM with HS 578T breast; 14 µM in the experiment with LOX IMVI melanoma; 10.1 µM with MCF7 breast; 22 µM with MDA-MB-435; 40 µM with NCI-H460 lung. In addition, the TGI was 13.6 µM in the experiment on OVCAR-8 ovarian, 6.35 µM in the experiment with SK-MEL-5 melanoma, 14.4 µM in the experiment on SNB-75 CNS and 4.85 µM with UACC-62 melanoma.
For `CC(=O)O/N=C1\C=Cc2c(no[n+]2[O-])C1=O`, the TGI is 36.4 µM with HCT-15 colon; 56.3 µM with HS 578T breast; 36.2 µM in the experiment on LOX IMVI melanoma; 45.4 µM with MCF7 breast; 36 µM in the experiment on MDA-MB-435; over 100 µM in the experiment on NCI-H460 lung. Also, the TGI with OVCAR-8 ovarian is 25.4 µM; with SK-MEL-5 melanoma, 31.6 µM; in the experiment with SNB-75 CNS, 35.5 µM; with UACC-62 melanoma it was 30.2 µM.
For `NC(=O)c1ncn(C2CCC(CP(=O)(O)O)C2)c1N` (stereo not drawn), the TGI with HCT-15 colon, in the experiment on HS 578T breast, in the experiment with LOX IMVI melanoma, in the experiment on MCF7 breast, with MDA-MB-435 and with NCI-H460 lung was over 100 µM each time. Also, the TGI with OVCAR-8 ovarian, in the experiment with SK-MEL-5 melanoma, with SNB-75 CNS and with UACC-62 melanoma was over 100 µM each time.
With `CCOC(=O)C(C(N)=O)c1nc2cc([N+](=O)[O-])ccc2nc1/C=C(\O)c1ccc(C)cc1` (stereo not drawn), the TGI was over 82.2 µM in the experiment on HCT-15 colon; 75.1 µM in the experiment with HS 578T breast; 57.4 µM in the experiment with LOX IMVI melanoma; over 60.5 µM with MCF7 breast; over 100 µM in the experiment on MDA-MB-435; 58.1 µM in the experiment on NCI-H460 lung. Moreover, the TGI with OVCAR-8 ovarian was 40.1 µM; in the experiment on SK-MEL-5 melanoma, over 100 µM; in the experiment on SNB-75 CNS, 42 µM; in the experiment on UACC-62 melanoma, over 72.3 µM.
With `COc1c2c(cc3oc(=O)ccc13)OC(C)(C)C=C2`, the TGI is 65.5 µM with HCT-15 colon; over 125 µM with HS 578T breast; 41.8 µM in the experiment with LOX IMVI melanoma; 57.8 µM in the experiment with MCF7 breast; 68.7 µM in the experiment on MDA-MB-435; 62.2 µM in the experiment with NCI-H460 lung. In addition, the TGI in the experiment with OVCAR-8 ovarian stood at 75.1 µM; in the experiment with SK-MEL-5 melanoma, 41.8 µM; with SNB-75 CNS, 56.6 µM; with UACC-62 melanoma, 42.2 µM.
On to `CCOC(=O)Cn1c(=O)c2cc(C)cc3c(Cl)nc4c(OC)c(OC)cc1c4c32`, for which the TGI was over 100 µM in the experiment on HCT-15 colon; 74.7 µM with HS 578T breast; over 100 µM with LOX IMVI melanoma; over 100 µM in the experiment with MCF7 breast; over 100 µM in the experiment with MDA-MB-435; over 100 µM with NCI-H460 lung. Besides, the TGI in the experiment on OVCAR-8 ovarian, with SK-MEL-5 melanoma, with SNB-75 CNS and in the experiment on UACC-62 melanoma was over 100 µM in each case.
In the case of `CCNc1nc2ccccc2nc1NCC`, the TGI with HCT-15 colon, in the experiment with HS 578T breast, in the experiment on LOX IMVI melanoma, in the experiment on MCF7 breast, in the experiment with MDA-MB-435 and with NCI-H460 lung was over 100 µM throughout. Also, the TGI in the experiment with OVCAR-8 ovarian, with SK-MEL-5 melanoma, with SNB-75 CNS and with UACC-62 melanoma was over 100 µM each time.
With `COc1cc(/C=C/C(=O)OC[C@]23O[C@H]2[C@@H](OC2OC(C)C(O)C(O)C2O)C2C=CO[C@@H](OC4OC(CO)C(O)C(O)C4O)C23)ccc1O` (stereo partly drawn), the TGI in the experiment on HCT-15 colon, in the experiment with HS 578T breast, in the experiment with LOX IMVI melanoma, with MCF7 breast, in the experiment with MDA-MB-435 and in the experiment on NCI-H460 lung was over 100 µM each time. Further, the TGI in the experiment with OVCAR-8 ovarian, with SK-MEL-5 melanoma, in the experiment on SNB-75 CNS and in the experiment on UACC-62 melanoma was over 100 µM in each case.
In the case of `COc1ccc(NC(=O)c2cc(NC(=O)/C=C/c3ccccc3)c(OC)c(OC)c2)cc1`, the TGI was over 100 µM in the experiment on HCT-15 colon; over 100 µM with HS 578T breast; over 100 µM in the experiment on LOX IMVI melanoma; over 100 µM in the experiment on MCF7 breast; 9.38 µM in the experiment on MDA-MB-435; over 100 µM in the experiment on NCI-H460 lung. Further, the TGI with SK-MEL-5 melanoma is over 100 µM; in the experiment with SNB-75 CNS, 48.5 µM; with UACC-62 melanoma it was over 100 µM.
